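All cell lines were grown in 96-well plates and treated with compound for 48 hours. GI50: concentration for 50% inhibition of growth. At the TGI there is no net growth.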
Experiments:
Assay in all cases: growth of human tumour cells (NCI), 48 h
HS 578T breast = system: HS 578T breast
EKVX NSCLC = system: EKVX NSCLC
BT-549 breast = system: BT-549 breast
ACHN renal = system: ACHN renal
M14 melanoma = system: M14 melanoma
MALME-3M melanoma = system: MALME-3M melanoma
RPMI-8226 leukemia = system: RPMI-8226 leukemia
UACC-62 melanoma = system: UACC-62 melanoma
SK-MEL-28 melanoma = system: SK-MEL-28 melanoma
OVCAR-5 ovarian = system: OVCAR-5 ovarian
HT29 colon = system: HT29 colon
NCI-H226 lung = system: NCI-H226 lung
T-47D breast = system: T-47D breast
CCRF-CEM leukemia = system: CCRF-CEM leukemia
SK-MEL-2 melanoma = system: SK-MEL-2 melanoma
786-0 renal = system: 786-0 renal
CAKI-1 renal = system: CAKI-1 renal
HCT-15 colon = system: HCT-15 colon
MCF7 breast = system: MCF7 breast
SNB-19 CNS = system: SNB-19 CNS
NCI-H522 lung = system: NCI-H522 lung
NCI-H23 lung = system: NCI-H23 lung
IGROV1 ovarian = system: IGROV1 ovarian
SF-539 CNS = system: SF-539 CNS
LOX IMVI melanoma = system: LOX IMVI melanoma
NCI-H460 lung = system: NCI-H460 lung
SF-268 CNS = system: SF-268 CNS
DU-145 prostate = system: DU-145 prostate
U251 CNS = system: U251 CNS
UACC-257 melanoma = system: UACC-257 melanoma
RXF 393 renal = system: RXF 393 renal
PC-3 prostate = system: PC-3 prostate
SK-OV-3 ovarian = system: SK-OV-3 ovarian
A549 NSCLC = system: A549 NSCLC
KM12 colon = system: KM12 colon
HOP-62 NSCLC = system: HOP-62 NSCLC
OVCAR-4 ovarian = system: OVCAR-4 ovarian
MOLT-4 leukemia = system: MOLT-4 leukemia
HOP-92 NSCLC = system: HOP-92 NSCLC
OVCAR-3 ovarian = system: OVCAR-3 ovarian
SF-295 CNS = system: SF-295 CNS
COLO 205 colon = system: COLO 205 colon
TK-10 renal = system: TK-10 renal
SN12C renal = system: SN12C renal
HL-60(TB) leukemia = system: HL-60(TB) leukemia
OVCAR-8 ovarian = system: OVCAR-8 ovarian
A498 renal = system: A498 renal
MDA-MB-231 breast = system: MDA-MB-231 breast
HCT-116 colon = system: HCT-116 colon
MDA-MB-435 = system: MDA-MB-435
NCI/ADR-RES ovarian = system: NCI/ADR-RES ovarian
SW-620 colon = system: SW-620 colon
UO-31 renal = system: UO-31 renal
SK-MEL-5 melanoma = system: SK-MEL-5 melanoma
SNB-75 CNS = system: SNB-75 CNS
HCC-2998 colon = system: HCC-2998 colon

## Cc1ccc(-c2cc(/C=N/O)on2)cc1
HS 578T breast
  GI50: > 100 µM
  TGI: > 100 µM
EKVX NSCLC
  GI50: 43.3 µM
  TGI: > 100 µM
BT-549 breast
  GI50: 49.5 µM
  TGI: > 100 µM
ACHN renal
  GI50: 54.8 µM
  TGI: > 100 µM
M14 melanoma
  GI50: 65.4 µM
  TGI: > 100 µM
MALME-3M melanoma
  GI50: > 100 µM
  TGI: > 100 µM
RPMI-8226 leukemia
  GI50: 36.9 µM
  TGI: > 100 µM
UACC-62 melanoma
  GI50: 38.9 µM
  TGI: > 100 µM
SK-MEL-28 melanoma
  GI50: > 100 µM
  TGI: > 100 µM
OVCAR-5 ovarian
  GI50: > 100 µM
  TGI: > 100 µM
HT29 colon
  GI50: 48.4 µM
  TGI: > 100 µM
NCI-H226 lung
  GI50: 36.2 µM
  TGI: > 100 µM
T-47D breast
  GI50: 29.5 µM
  TGI: > 100 µM
CCRF-CEM leukemia
  GI50: 46.9 µM
  TGI: > 100 µM
SK-MEL-2 melanoma
  GI50: 97.3 µM
  TGI: > 100 µM
786-0 renal
  GI50: 50.4 µM
  TGI: > 100 µM
CAKI-1 renal
  GI50: 43.9 µM
  TGI: > 100 µM
HCT-15 colon
  GI50: 64.6 µM
  TGI: > 100 µM
MCF7 breast
  GI50: 55.1 µM
  TGI: > 100 µM
SNB-19 CNS
  GI50: > 100 µM
  TGI: > 100 µM
NCI-H522 lung
  GI50: 62.4 µM
  TGI: > 100 µM
NCI-H23 lung
  GI50: 73.1 µM
  TGI: > 100 µM
IGROV1 ovarian
  GI50: 63.8 µM
  TGI: > 100 µM
SF-539 CNS
  GI50: > 100 µM
  TGI: > 100 µM
LOX IMVI melanoma
  GI50: 53.3 µM
  TGI: > 100 µM
NCI-H460 lung
  GI50: 63.6 µM
  TGI: > 100 µM
SF-268 CNS
  GI50: > 100 µM
  TGI: > 100 µM
DU-145 prostate
  GI50: 68.7 µM
  TGI: > 100 µM
U251 CNS
  GI50: 54.3 µM
  TGI: > 100 µM
UACC-257 melanoma
  GI50: 67.5 µM
  TGI: > 100 µM
RXF 393 renal
  GI50: > 100 µM
  TGI: > 100 µM
PC-3 prostate
  GI50: 63 µM
  TGI: > 100 µM
SK-OV-3 ovarian
  GI50: > 100 µM
  TGI: > 100 µM
A549 NSCLC
  GI50: 51 µM
  TGI: > 100 µM
KM12 colon
  GI50: 35.6 µM
  TGI: > 100 µM
HOP-62 NSCLC
  GI50: > 100 µM
  TGI: > 100 µM
OVCAR-4 ovarian
  GI50: > 100 µM
  TGI: > 100 µM
MOLT-4 leukemia
  GI50: 21.9 µM
  TGI: > 100 µM
HOP-92 NSCLC
  GI50: 47.6 µM
  TGI: > 100 µM
OVCAR-3 ovarian
  GI50: 58.2 µM
  TGI: > 100 µM
SF-295 CNS
  GI50: 33.9 µM
  TGI: > 100 µM
COLO 205 colon
  GI50: 49.9 µM
  TGI: > 100 µM
TK-10 renal
  GI50: 63.8 µM
  TGI: > 100 µM
SN12C renal
  GI50: > 100 µM
  TGI: > 100 µM
HL-60(TB) leukemia
  GI50: 26.5 µM
  TGI: > 100 µM
OVCAR-8 ovarian
  GI50: > 100 µM
  TGI: > 100 µM
A498 renal
  GI50: 41.3 µM
  TGI: > 100 µM
MDA-MB-231 breast
  GI50: > 100 µM
  TGI: > 100 µM
HCT-116 colon
  GI50: 71.4 µM
  TGI: > 100 µM
MDA-MB-435
  GI50: 52.1 µM
  TGI: > 100 µM
NCI/ADR-RES ovarian
  GI50: 45.4 µM
  TGI: > 100 µM
SW-620 colon
  GI50: 65.7 µM
  TGI: > 100 µM
UO-31 renal
  GI50: 36.4 µM
  TGI: > 100 µM

## COc1cnc2c(c1)C(=O)c1c-2n(CCCN2CCN(CCO)CC2)c(=O)c2cc([N+](=O)[O-])ccc12
SK-MEL-5 melanoma
  GI50: 1.44 µM
  TGI: 2.78 µM
HS 578T breast
  GI50: 14.7 µM
  TGI: 42.1 µM
EKVX NSCLC
  GI50: 1.8 µM
  TGI: 4.23 µM
BT-549 breast
  GI50: 2.9 µM
  TGI: 18.9 µM
ACHN renal
  GI50: 0.738 µM
  TGI: 15.9 µM
M14 melanoma
  GI50: 0.769 µM
  TGI: 2.49 µM
MALME-3M melanoma
  GI50: 1.56 µM
  TGI: 3.33 µM
RPMI-8226 leukemia
  GI50: 1.57 µM
  TGI: 6.75 µM
UACC-62 melanoma
  GI50: 1.22 µM
  TGI: 3.16 µM
SK-MEL-28 melanoma
  GI50: 2.01 µM
  TGI: 4.16 µM
OVCAR-5 ovarian
  GI50: 19.5 µM
  TGI: 37.2 µM
HT29 colon
  GI50: 1.24 µM
  TGI: 2.63 µM
NCI-H226 lung
  GI50: 0.964 µM
  TGI: 20 µM
T-47D breast
  GI50: 12.8 µM
  TGI: 46.5 µM
CCRF-CEM leukemia
  GI50: 0.494 µM
  TGI: > 100 µM
SK-MEL-2 melanoma
  GI50: 18.7 µM
  TGI: 39 µM
SNB-75 CNS
  GI50: 1.64 µM
  TGI: 13.1 µM
786-0 renal
  GI50: 1.61 µM
  TGI: 3.13 µM
CAKI-1 renal
  GI50: 1.34 µM
  TGI: 15.8 µM
HCT-15 colon
  GI50: 1.18 µM
  TGI: 2.67 µM
MCF7 breast
  GI50: 0.142 µM
  TGI: 1.59 µM
SNB-19 CNS
  GI50: 2.38 µM
  TGI: 12.4 µM
NCI-H522 lung
  GI50: 0.499 µM
  TGI: 2.89 µM
NCI-H23 lung
  GI50: 1.27 µM
  TGI: 3.33 µM
SF-539 CNS
  GI50: 1.7 µM
  TGI: 3.68 µM
HCC-2998 colon
  GI50: 11.7 µM
  TGI: 24.9 µM
LOX IMVI melanoma
  GI50: 1.08 µM
  TGI: 2.51 µM
NCI-H460 lung
  GI50: 0.267 µM
  TGI: 1.45 µM
SF-268 CNS
  GI50: 1.07 µM
  TGI: 4.92 µM
DU-145 prostate
  GI50: 1.43 µM
  TGI: 4.42 µM
U251 CNS
  GI50: 1.16 µM
  TGI: 2.42 µM
UACC-257 melanoma
  GI50: 2.26 µM
  TGI: 6.87 µM
RXF 393 renal
  GI50: 4.68 µM
  TGI: 20.4 µM
PC-3 prostate
  GI50: 16.5 µM
  TGI: 92.6 µM
SK-OV-3 ovarian
  GI50: 4.99 µM
  TGI: 20.2 µM
A549 NSCLC
  GI50: 1.13 µM
  TGI: 2.48 µM
KM12 colon
  GI50: 1.74 µM
  TGI: 4.41 µM
HOP-62 NSCLC
  GI50: 2.76 µM
  TGI: 19.6 µM
OVCAR-4 ovarian
  GI50: 1.79 µM
  TGI: 4.42 µM
MOLT-4 leukemia
  GI50: 0.552 µM
  TGI: 4.45 µM
HOP-92 NSCLC
  GI50: 13.3 µM
  TGI: 31 µM
OVCAR-3 ovarian
  GI50: 1.46 µM
  TGI: 3.12 µM
SF-295 CNS
  GI50: 0.533 µM
  TGI: 2.05 µM
COLO 205 colon
  GI50: 1.18 µM
  TGI: 5.13 µM
TK-10 renal
  GI50: 2.77 µM
  TGI: 11.9 µM
HL-60(TB) leukemia
  GI50: 1.69 µM
  TGI: 5.27 µM
OVCAR-8 ovarian
  GI50: 1.39 µM
  TGI: 5.03 µM
A498 renal
  GI50: 0.794 µM
  TGI: 19.7 µM
MDA-MB-231 breast
  GI50: 1.81 µM
  TGI: 3.74 µM
MDA-MB-435
  GI50: 1.97 µM
  TGI: 4.66 µM
NCI/ADR-RES ovarian
  GI50: 1.29 µM
  TGI: 3.86 µM
SW-620 colon
  GI50: 0.326 µM
  TGI: 2.07 µM
UO-31 renal
  GI50: 3.32 µM
  TGI: 20.8 µM
